# Assays:
# [1] = target: T1, human FXR (Homo sapiens, UniProt Q96RI1); assay: FXR counter screen, cell-based luciferase reporter assay; conditions: cells expressing human FXR and FXR-responsive luciferase reporter, 0.4 to 50 μM test compound; read-out: pEC50 human FXR (converted)
# T1 construct: purchased Indigo Biosciences (State College, Pa.)
# T1 sequence (Q96RI1 1-486): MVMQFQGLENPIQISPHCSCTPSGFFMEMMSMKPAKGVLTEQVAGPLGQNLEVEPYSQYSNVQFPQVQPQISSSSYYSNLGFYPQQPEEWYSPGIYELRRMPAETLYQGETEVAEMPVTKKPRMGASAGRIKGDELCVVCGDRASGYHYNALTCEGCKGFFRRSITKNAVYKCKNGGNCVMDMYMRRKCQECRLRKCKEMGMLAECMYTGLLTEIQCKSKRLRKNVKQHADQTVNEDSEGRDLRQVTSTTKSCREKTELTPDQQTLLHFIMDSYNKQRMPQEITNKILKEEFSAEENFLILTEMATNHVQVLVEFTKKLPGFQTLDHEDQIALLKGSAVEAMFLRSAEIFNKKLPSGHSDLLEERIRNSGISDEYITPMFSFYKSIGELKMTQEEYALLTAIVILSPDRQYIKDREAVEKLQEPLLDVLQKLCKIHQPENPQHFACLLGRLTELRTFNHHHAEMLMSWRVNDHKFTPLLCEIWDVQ
# Description: FXR: The ability of test compounds to activate FXR (NR1H4) was measured using a cell-based assay kit obtained from Indigo Biosciences (State College, Pa.).
# [2] = target: T2, human TGR5 (Homo sapiens, UniProt Q8TDU6); assay: Cell-based TGR5 assay, HEK293 cells stably expressing human TGR5, cAMP by HTRF; conditions: HEK293 cells stably expressing human TGR5, 30 min at 37 C, 0.05 nM to 10 μM, read-out: pEC50 Human TGR5 (converted)
# T2 construct: expressed in transfected cells
# T2 sequence (Q8TDU6 1-330): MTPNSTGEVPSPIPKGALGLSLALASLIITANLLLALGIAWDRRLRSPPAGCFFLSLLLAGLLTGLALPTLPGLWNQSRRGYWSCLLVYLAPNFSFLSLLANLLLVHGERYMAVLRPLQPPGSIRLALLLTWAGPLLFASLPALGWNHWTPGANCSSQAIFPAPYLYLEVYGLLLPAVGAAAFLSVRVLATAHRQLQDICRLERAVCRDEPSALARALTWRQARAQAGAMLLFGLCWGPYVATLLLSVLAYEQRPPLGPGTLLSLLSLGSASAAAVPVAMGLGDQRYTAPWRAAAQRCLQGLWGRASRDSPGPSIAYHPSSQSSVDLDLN
# How it was run: (§1)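 cAMP HTRF read-out, converted to concentration via standard curve, after a 30 min, 37 °C compound exposure in HBSS with 10 mM HEPES pH 7.4 and 0.5 mM IBMX, compounds serially diluted 3-fold from 10 mM DMSO stock then 100-fold. Cells: stable human TGR5 HEK293, or NCI-H716 expressing TGR5 endogenously.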
# [3] = target: T3, endogenously expressed TGR5 in NCI H716 (Homo sapiens, UniProt Q8TDU6); assay: Cell-based TGR5 assay, NCI-H716 cells endogenously expressing human TGR5, cAMP by HTRF; conditions: 30 min at 37 C, 22 nM to 50 μM, read-out: pEC50 endogenously expressed TGR5 in NCI H716 (converted)
# T3 construct: human caecum carcinoma cell line NCI-H716 which endogenously expresses human TGR5; endogenous in cells; host or cells: NCI-H716
# T3 sequence (Q8TDU6 1-330): T2 sequence (Q8TDU6 1-330)
# How it was run: as §1
# [4] = Compound concentration in gallbladder 16 hours post dose; assay type: in vivo; conditions: 30 mg/kg
# Description: (§2) Compound concentrations in the gall bladder were determined as follows: each mouse was heavily anesthetized with isoflurane, the peritoneal cavity was opened and the gallbladder, with its entire contents, was carefully excised. After harvest, gall bladders were homogenized in 100 μL water using a micro-homogenizer. Samples of homogenate were diluted 1:5 in water and precipitated with three volumes of neat acetonitrile. After centrifugation, supernatants were analyzed by LC-MS/MS. The level of test compound present in gall bladder samples was interpolated from a standard curve for each individual compound prepared in a matrix of gallbladder homogenate from vehicle treated animals.
# C57BL/6 male mice on regular chow had food removed (to prevent gallbladder emptying) and were dosed in the early evening with vehicle (2% DMSO in 0.4% hydroxypropyl methylcellulose) or 30 mg/kg of examples 176, 177, or 178 formulated in vehicle. The next morning (˜16 h post-dose), mice were heavily anesthetized with isoflurane, the peritoneal cavity was opened and gallbladders (with contents) were carefully excised and weighed. Compound levels in gallbladder were analyzed as described in Example 293.
# [5] = target: T4, human IBAT (Homo sapiens, UniProt Q12908); assay: IBAT counter screen, [3H]taurocholic acid uptake in IBAT-transfected HEK293 cells; assay type: cell-based; conditions: read-out: pEC50 human IBAT (converted)
# T4 construct: expressed in transfected cells; host or cells: HEK293
# T4 sequence (Q12908 1-348): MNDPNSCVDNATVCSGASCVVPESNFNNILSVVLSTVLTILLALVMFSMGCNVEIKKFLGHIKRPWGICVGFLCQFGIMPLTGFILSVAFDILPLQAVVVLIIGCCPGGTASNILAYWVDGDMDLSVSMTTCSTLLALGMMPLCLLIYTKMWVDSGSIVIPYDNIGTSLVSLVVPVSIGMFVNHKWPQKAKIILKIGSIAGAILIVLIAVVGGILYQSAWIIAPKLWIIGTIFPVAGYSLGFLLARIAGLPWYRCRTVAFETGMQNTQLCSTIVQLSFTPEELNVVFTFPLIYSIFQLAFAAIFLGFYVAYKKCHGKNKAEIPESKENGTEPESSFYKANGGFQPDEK
# Description: Following a 40-min incubation, the solution was removed, and the cells were washed twice with uptake buffer. Cells were lysed by addition of 20 μL 0.1% Tween 80 followed by 100 μL scintillation fluid and counted using a TopCount (Perkin Elmer).
# [6] = Compound concentration in gall bladder, LC-MS/MS, 8 h post dose; assay type: in vivo; conditions: 30 mg/kg
# Description: (§3) Eight hours later, each mouse was heavily anesthetized with isoflurane, the peritoneal cavity was opened and the gallbladder, with its entire contents, was carefully excised and weighed. Blood was collected from the left ventricle of the heart and processed to plasma in EDTA-coated tubes containing aprotinin and DPPIV inhibitor for measurement of total GLP-1 (K150FCC; Meso Scales Discovery, Gaithersburg Md.).
# as §2
# [7] = test system: C57BL/6 male mice; assay: In vivo gallbladder measurement (weight) 8 h post dose; conditions: 30 mg/kg
# From the text: as §3
# [8] = test system: total GLP-1; assay: In vivo GLP-1 secretion, plasma total GLP-1 8 h post dose; conditions: Mus musculus, C57BL/6 male mice, food removed, plasma total GLP-1 eight hours after dosing, read-out: GLP-1 fold change over vehicle, Mean
# From the text: as §3
# [9] = Compound plasma concentration, LC-MS/MS, 8 h post dose; assay type: in vivo; conditions: 30 mg/kg
# How it was run: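 Blood was taken from the left ventricle 8 h after dosing, under isoflurane anesthesia, into EDTA tubes containing aprotinin and DPPIV inhibitor. Plasma was protein-precipitated with acetonitrile containing an internal standard, and supernatants were analyzed by LC-MS/MS against a plasma standard curve.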
# [10] = mice below LLOQ / mice in group
Compound,EC50 [1],EC50 [2],EC50 [3],"Number of Mice with Gallbladder Concentration < LLOQ [4, 10]","concentration at 16 h ([4]; male, C57BL/6, mouse, gallbladder (homogenate, with contents), mice, gallbladder, read-out: Mean Example Gallbladder Concentration)",EC50 [5],"Number of Mice with Gallbladder Concentration < LLOQ [6, 10]","concentration at 8 h ([6]; male, C57BL/6, mouse, with contents, mice, gallbladder homogenate, read-out: Mean Example Gallbladder Concentration)","Gallbladder weight/body weight fold change over vehicle, Significance ([7]; 8 h, vs. vehicle, one-way ANOVA, Dunnett's test)","Gallbladder weight/body weight fold change over vehicle, Mean ([7]; food removed, eight hours after dosing)",response vs control in vivo at 30 mg/kg [8],"Number of Mice with Plasma Concentration < LLOQ [9, 10]","concentration at 8 h ([9]; male, C57BL/6, mouse, mice, plasma, read-out: Mean Example Plasma Concentration)"
"O=C(N1CCN(C2CC2)c2ccccc21)C1(COc2cc(Cl)ccc2Cl)CC1 [Example 32, 1-cyclopropyl-4-[[1-(2,5-dichlorophenoxymethyl)cyclopropyl]carbonyl]-1,2,3,4-tetrahydroquinoxaline]",> 50.1 µM,< 0.1 µM,0.126 to 1 µM,,,,,,,,,,
"O=C(O)CCc1cc(Cl)c(CNC2(C(=O)N3CCN(C4CC4)c4ccccc43)CC2)cc1Cl [Example 83, 3-(2,5-dichloro-4-(((1-(4-cyclopropyl-1,2,3,4-tetrahydroquinoxaline-1-carbonyl)cyclopropyl)amino)methyl)phenyl)propanoic acid]",,0.126 to 1 µM,1.26 to 50.1 µM,0/6,30 nM,,,,,,,,
"O=C(N1CCN(C2CC2)c2ccccc21)C1(OCc2cc(Cl)ccc2Cl)CC1 [Example 9, (4-cyclopropyl-3,4-dihydroquinoxalin-1(2H)-yl)(1-(2,5-dichlorobenzyloxyl)cyclopropyl)methanone]",> 50.1 µM,< 0.1 µM,0.126 to 1 µM,,,> 25.1 µM,,,,,,,
"O=C(CCc1cc(Cl)c(COC2(C(=O)N3CCN(C4CC4)c4ccccc43)CC2)cc1Cl)NC[C@H](O)[C@@H](O)[C@H](O)[C@H](O)CO [Example 88, 3-[2,5-dichloro-4-([1-[(4-cyclopropyl-1,2,3,4-tetrahydroquinoxalin-1-yl)carbonyl]cyclopropoxy]methyl)phenyl]-N-[(2S,3R,4R,5R)-2,3,4,5,6-pentahydroxyhexyl]propanamide]",> 50.1 µM,< 0.1 µM,< 0.1 µM,,,,,,,,,,
CN(C[C@H](O)[C@@H](O)[C@H](O)[C@H](O)CO)C(=O)NCCCCOc1cc(Cl)c(CN2CSC[C@H]2C(=O)N2CCN(C3CC3)c3ccccc32)cc1Cl [Example 191],,< 0.1 µM,0.126 to 1 µM,,,,0/8,100 nM,n.s.,1.0 fold change over vehicle,150%,8/8,< 0.5 ng/mL

# Reference: US20150148311A1, “NON-SYSTEMIC TGR5 AGONISTS” (Ardelyx, Inc., priority 2011, published 2015)
